Drawing on ChEMBL document CHEMBL1132426, “Inhibitors of the C(2)-symmetric HIV-1 protease: nonsymmetric binding of a symmetric cyclic sulfamide with ketoxime groups in the P2/P2' side chains” (J Med Chem, 1999), this text covers Ki for 6 compounds.

Usually pKi stands for the negative decadic logarithm of the Ki, by convention in mol/L.

pKi: −log10 of the molar value.

This assay deals with Human immunodeficiency virus type 1 protease (Human immunodeficiency virus 1, UniProt Q72874). Description: Inhibitory activity against HIV-1 Protease expressed in Escherichia coli.
As to `COC(Cc1cccc(CN2[C@H](COc3ccccc3)[C@H](O)[C@@H](O)[C@@H](COc3ccccc3)N(Cc3cccc(CC(OC)OC)c3)S2(=O)=O)c1)OC`, the pKi was 6.27.
Compound `C/C(=N/O)c1cccc(CN2[C@H](COc3ccccc3)[C@H](O)[C@@H](O)[C@@H](COc3ccccc3)N(Cc3cccc(/C(C)=N\O)c3)S2(=O)=O)c1` had a pKi of 8.47.
Next, `COC(=O)c1ccc(CN2[C@H](COc3ccccc3)[C@H](O)[C@@H](O)[C@@H](COc3ccccc3)N(Cc3ccc(C(=O)OC)cc3)S2(=O)=O)cc1`: 7.08; `O=S1(=O)N(Cc2cccc(CCO)c2)[C@H](COc2ccccc2)[C@H](O)[C@@H](O)[C@@H](COc2ccccc2)N1Cc1cccc(CCO)c1`: 7.37.
As for `O=S1(=O)N(Cc2ccc(CO)cc2)[C@H](COc2ccccc2)[C@H](O)[C@@H](O)[C@@H](COc2ccccc2)N1Cc1ccc(CO)cc1`, the pKi was 8.51.
The same measure for `CC(=O)c1cccc(CN2[C@H](COc3ccccc3)[C@H](O)[C@@H](O)[C@@H](COc3ccccc3)N(Cc3cccc(C(C)=O)c3)S2(=O)=O)c1`: 7.23.
